Test results taken from patent publication US7491793B2 (priority 2003, dated 2009).

Tested on: Lassa virus (Josiah strain)
Type: cell-based

| Sequence | inhibition of plaque formation by LasV |
| --- | --- |
| NYSKYWYLNHTTTGR [SEQ ID NO:30] | can inhibit plaque formation by LasV |
| GWTFWTLSDSEGKDTPGGY [SEQ ID NO:31] | inhibited infection by LasV, but to a lesser extent |
